Measured values published in PMC4205912, “Sea foam as a source of fungal inoculum for the isolation of biologically active natural products” (Mycology, 2014).
Converted amounts (≈) assume the structure as drawn.

What was measured:
[1] = test system: adult human epidermal keratinocytes (HEKa); test: cytotoxicity assay (Alamar blue), keratinocytes; type: cell-based; settings: HeKa cells, 24 h
Experimental: (§1) Human foreskin BJ fibroblast cells (ATCC CRL-2522), adult human epidermal keratinocytes (HEKa), and human breast adenocarcinoma cells (ATCC HTB-26) were grown to 80% confluency (growth conditions are provided in Supplementary Materials and Methods), the cells were counted, diluted, and plated into treated 96-well cell culture plates. The BJ fibroblast and HEKa cells were plated at a cell density of 10,000 cells per well and the HTB-26 cells were plated at cell density of 5000 cells per well in 90 µL of respective growth medium (without the addition of antibiotics) and incubated for 24 h to allow cells to adhere to the plates before treatment. Pure compounds were tested in triplicate in serial dilutions of eight concentrations ranging from 128 µg/mL to 1 µg/mL per well (final well volume of 100 µL, 1% DMSO per well). Each of the cell lines were incubated at 37°C in a humidified atmosphere of 5% CO2; the BJ fibroblast and HEKa cells for 24 h and the HTB-26 cells for 72 h. Each plate contained four uninoculated positive controls, four untreated negative controls, and one column containing a concentration range of zinc pyrithione or doxorubicin. Alamar blue was added, 24 h after the treatment, and fluorescence was monitored using a Thermo Scientific Varioskan Flash plate reader at 560/12 excitation, 590 nm emission both at time zero and 4 h after Alamar blue addition. The inferred percentage of cell viability relative to vehicle control wells were calculated after subtracting the time zero emission 590 nm measurement from the final reading and the IC50 was determined.

[2] = test system: Candida albicans ATCC 14035; test: microbroth susceptibility testing, C. albicans; type: cell-based; settings: triplicate, averaged, 22 h at 37°C
Experimental: (§2) All microbroth antibiotic susceptibility testing was carried out in triplicate in 96-well plates in accordance with Clinical Laboratory Standards Institute testing standards (NCCLS, [2003]) using the following pathogens: MRSA ATCC 33591 (MRSA), S. warneri ATCC 17917, VRE EF379 (VRE), Pseudomonas aeruginosa ATCC 14210, Proteus vulgaris ATCC 12454, and Candida albicans ATCC 14035. Extract fractions were assayed at 250 µg/mL while pure compounds were serially diluted to generate a range of 12 concentrations (128–0.0625 µg/mL) in a final well volume concentration of 2% DMSO(aq). […] The optical density of the plate was recorded using a Thermo Scientific Varioskan Flash plate reader at 600 nm at time zero and then again after incubation of the plates for 22 h at 37°C. After subtracting the time zero OD600 from the final reading, the percentages of microorganism survival relative to vehicle control wells were calculated.

[3] = test system: Pseudomonas aeruginosa ATCC 14210; test: microbroth antibiotic susceptibility testing, P. aeruginosa; type: cell-based; settings: triplicate, averaged, 22 h at 37°C
Experimental: as §2

MRSA ATCC 33591 = test: microbroth antibiotic susceptibility testing, MRSA; type: cell-based, methicillin-resistant Staphylococcus aureus; settings: triplicate, averaged, 22 h at 37°C
Experimental: as §2

S. warneri ATCC 17917 = test: microbroth antibiotic susceptibility testing, S. warneri; type: cell-based; settings: triplicate, averaged, 22 h at 37°C
Experimental: as §2

[4] = test system: adult human epidermal keratinocytes (HEKa); test: cytotoxicity assay (Alamar blue), keratinocytes; type: cell-based; settings: HeKa cells, 24 h; remark: listed apart in the source
VRE EF379 = test: microbroth antibiotic susceptibility testing, VRE; type: cell-based, vancomycin-resistant Enterococcus faecium; settings: triplicate, averaged, 22 h at 37°C
Experimental: as §2

[5] = test system: Proteus vulgaris ATCC 12454; test: microbroth antibiotic susceptibility testing, P. vulgaris; type: cell-based; settings: triplicate, averaged, 22 h at 37°C
Experimental: as §2, with “14035.” for “14035. Extract fractions were assayed at 250 µg/mL while pure compounds were serially diluted to generate a range of 12 concentrations (128–0.0625 µg/mL) in a final well volume concentration of 2% DMSO(aq).”

[6] = test system: Human foreskin BJ fibroblast cells (ATCC CRL-2522); test: cytotoxicity assay (Alamar blue), fibroblasts; type: cell-based; settings: Homo sapiens; BJ cells, 24 h; read-out: Fibroblast IC50
Experimental: as §1

[7] = test system: erythropoietin gene expression; parameters: method as in Cai et al. [1998]; settings: at a concentration of 1–1.6 µM; ref Cai et al. [1998]; cited from earlier work
stromelysin = test system: stromelysin; parameters: method as in Harris et al. [1993]; settings: ref Harris et al. [1993]; read-out: IC50, inhibition of cleavage of β-casein by stromelysin; cited from earlier work
[8] = Pseudomonas aeruginosa, ATCC14210

With coniothyrione the “Keratinocyte IC50” value [1] was 5 mg/L, the “C. albicans IC50” value [2] was greater than 64 mg/L and the “C. albicans MIC” value [2] was greater than 64 mg/L. For the same compound, the “P. aeruginosa IC50” value [3] was greater than 64 mg/L, the “P. aeruginosa MIC” value [3] was greater than 64 mg/L and the “MRSA IC50” value (MRSA ATCC 33591) was 8 mg/L. The “MRSA MIC” value (MRSA ATCC 33591) was 16 mg/L, the “S. warneri IC50” value (S. warneri ATCC 17917) was 12 mg/L and the “S. warneri MIC” value (S. warneri ATCC 17917) was 16 mg/L. For the same compound, the “Keratinocyte MIC” value [4] was 64 mg/L, the “VRE IC50” value (VRE EF379) was 4 mg/L and the “VRE MIC” value (VRE EF379) was 16 mg/L. For the same compound, the “P. vulgaris IC50” value [5] was 30 mg/L and the “P. vulgaris MIC” value [5] was greater than 64 mg/L.
For Cc1cc(=O)c(O)cc2c1C[C@H]1CC(C)(C)/C=C/C[C@@]3(C)Oc4cc(O)c(=O)cc(C)c4C[C@@H]3C[C@H](O)[C@]1(C)O2 [Pycnidione, pycnidione], the IC50 ([1]; Homo sapiens, read-out: Keratinocyte IC50) was 15 mg/L (≈ 27.3 µM), the IC50 [6] was 11 mg/L (≈ 20 µM) and the IC50 ([2]; Candida albicans, ATCC14035) was 5 mg/L (≈ 9.11 µM). The MIC ([2]; Candida albicans, ATCC14035) was 8 mg/L (≈ 14.6 µM), the IC50 [3, 8] was greater than 128 mg/L and the MIC [3, 8] was greater than 128 mg/L. For the same compound, the IC50 (MRSA ATCC 33591; Staphylococcus aureus, read-out: MRSA IC50) was 12 mg/L (≈ 21.9 µM), the MIC (MRSA ATCC 33591; Staphylococcus aureus, read-out: MRSA MIC) was 16 mg/L (≈ 29.2 µM) and the IC50 (S. warneri ATCC 17917; Staphylococcus warneri, ATCC17917, read-out: S. warneri IC50) was 12 mg/L (≈ 21.9 µM). The MIC (S. warneri ATCC 17917; Staphylococcus warneri, ATCC17917, read-out: S. warneri MIC) was 64 mg/L (≈ 117 µM), the “induction of erythropoietin gene expression” value [7] was “five-fold” and the IC50 (stromelysin) was 31 µM. For the same compound, the IC50 (VRE EF379; Enterococcus, VRE, read-out: VRE IC50) was 46 mg/L (≈ 83.8 µM), the MIC (VRE EF379; Enterococcus, VRE, read-out: VRE MIC) was 64 mg/L (≈ 117 µM) and the IC50 ([5]; Proteus vulgaris, ATCC12454) was 30 mg/L (≈ 54.7 µM). It also gave an MIC ([5]; Proteus vulgaris, ATCC12454) of 64 mg/L (≈ 117 µM).
